Reference: US8128963B2, “Methods for treating ischemic disorders using carbon monoxide” (The Trustees of Columbia University in the City Of New York, priority 1999, dated 2012)

What was measured:
acute ischemic stroke = conditions: cited from earlier work
[1] = system: murine model of focal cerebral ischemia; assay: Murine focal cerebral ischemia, carbon monoxide inhalation and heme oxygenase blockade; assay type: in vivo, mouse; conditions: for infarct volume / mortality: vs controls
Procedure: FIGS. 23A and 23B. FIG. 23A. The effect of carbon monoxide inhalation on cerebral infarct volumes. Mice were placed in bell jars, in which they were exposed to 0.1% CO for 12 hours. After this treatment, they were removed from the bell jars and subjected to intraluminal occlusion of the middle cerebral artery. At 24 hours, animals were sacrificed and infarct volumes measured by triphenyltetrazolium chloride (TTC) staining as shown in FIG. 25. Quantification of infarction volumes (mean±SEM) is expressed as the percent of infarction of the ipsilateral hemisphere.
Protoporphyrin preparation and administration. Tin protoporphyrin IX dichloride (20 mg, Porphyrin Products, Logan, Utah), zinc protoporphyrin IX (17 mg, Porphyrin Products, Logan, Utah), or biliverdin (18 mg, Porphyrin Products, Logan, Utah) was initially dissolved in dimethyl sulfoxide (2 mL). An aliquot of this solution (200 μL) was added to normal saline (9.8 mL) and this mixture was vortexed vigorously to yield a 2.7×10^−4 M solution of the protoporphyrin. The solution container was wrapped in aluminum foil to prevent photolysis of the protoporphyrin and stored at 4° C. until used.
Micro-osmotic pumps (#1003D, Alza Corp., Palo Alto, Calif.) were loaded with this protoporphyrin solution (91 μL/pump) and implanted subcutaneously in the anesthetized mouse via a 1 cm dorsal midline incision 24 h prior to the start of surgery. These pumps administer drug solution at a rate of 0.95±0.02. μL/h. At the time of surgery an additional dose of the protoporphyrin solution was administered (0.3 mL, i.v.) prior to insertion of the intralumenal occluding catheter. Each animal received the following total (injection+pump) drug amounts over the course of the study tin protoporphyrin (0.070 mg), zinc protoporphyrin (0.059 mg), or biliverdin (0.061 mg).

[2] = system: lung ischemia (lung preservation for transplantation); assay: Rat orthotopic left lung transplantation after 6 h preservation, donor CO pretreatment; assay type: in vivo
Procedure: Inbred male Lewis rats (250-300 gms) were used for all experiments according to a protocol approved by the Institutional Animal Care and Use Committee at Columbia University, in accordance with guidelines set forth by the American Academy for Accreditation of Laboratory Animal Care (AAALAC). Lung transplant experiments were performed in the following manner. Donor rats were given 500 units of heparin intravenously, and the pulmonary artery (PA) was flushed with a 30 mL volume of 4° C. preservation solution at a constant pressure of 20 mm Hg. When lungs are preserved in this manner, most of the infused flush solution comes out of a left atrial vent created in the lung donor, as well as out of the pulmonary veins following transection.
The left lung was then harvested, a cuff was placed on each vascular stump, a cylinder was inserted into the bronchus, and the lung was submerged for 6 hours in 4° C. preservation solution which was identical to the PA flush solution. Gender/strain/size matched rats were anesthetized, intubated, and ventilated with 100% O2 using a rodent ventilator (Harvard Apparatus, South Natick, Mass.). Orthotopic left lung transplantation was performed through a left thoracotomy using a rapid cuff technique for all anastomoses, with warm ischemic times maintained below 5 minutes. The hilar cross-clamp was released, re-establishing blood flow and ventilation to the transplanted lung. A snare was then passed around the right PA, and Millar catheters (2F; Millar Instruments, Houston, Tex.) were introduced into the main PA and the left atrium (LA). A Doppler flow probe (Transonics, Ithaca, N.Y.) was placed around the main PA.
Online hemodynamic monitoring was accomplished using MacLab and a Macintosh IIci computer. Measured hemodynamic parameters included LA and PA pressures (mm Hg), and PA flow (mL/min). Arterial oxygen tension (pO2, mm Hg) was measured during inspiration of 100% O2 using a model ABL-2 gas analyzer (Radiometer, Copenhagen, Denmark). PVRs were calculated as (mean PA pressure—LA pressure)/mean PA flow and expressed as mm Hg/mL/min. After baseline measurements, the native right PA was ligated and serial measurements taken every five minutes until the time of euthanasia at 30 minutes (or until recipient death).
At the indicated time before surgery (4,8, or 12 hours), rats were placed in a bell jar, and carbon monoxide was administered at various concentrations (0.01%, 0.03%, or 0.1%), with the remainder of the gas mixture consisting of room air. (The gas was passed through a jar of water prior to administration, in order to humidify it for animal comfort). At the indicated times following initiation of exposure, rats were anesthetized and lungs harvested as described above. These donor lungs were used in subsequent lung transplant experiments.

Human umbilical vein ECs = assay: vWF release from hypoxic endothelial cells (ELISA); assay type: cell-based
Procedure: Endothelial cell culture and exposure of cells to H or H/R. Human umbilical vein ECs were prepared from umbilical cords and grown in culture by the method of Jaffe (16) as modified by Thornton (17). Experiments utilized confluent ECs (passages 1-4) grown in Medium 199 supplemented with fetal bovine serum (15%; Gemini, Calabasas, Calif.), human serum (5%; Gemini), endothelial growth supplement (Sigma, St. Louis, Mo.), heparin (90 μg/ml; Sigma) and antibiotics, as described (17). When ECs achieved confluence, experiments were performed by placing cultures in an environmental chamber (Coy Laboratory Products, Ann Arbor, Mich.) which provided a controlled temperature (37° C.) and atmosphere with the indicated amount of oxygen, carbon dioxide (5%) and the balance made up of nitrogen. Use of this chamber for cell culture experiments has been described previously (15,18). During exposure of ECs to hypoxia (for a maximum of 16 hours), the oxygen tension in the culture medium was 14-18 torr and there was no change in the medium pH. Reoxygenation was performed by placing ECs in an ambient atmosphere containing carbon dioxide (5%) at 37° C.
Measurement of Weibel-Palade body exocytosis: ECs were plated into 24 well plates, rinsed 3 times with Hank's balanced salt solution, and then exposed to hypoxia or to normoxia for the indicated durations. For experiments in which vWF was measured, cells were maintained in serum-free medium. All other EC experiments were performed in the EC growth medium described above. For measurement of vWF, 200 μL aliquots of culture supernatant was removed at the indicated times, and a commercially available ELISA (American Diagnostica, Greenwich, Conn.), based on a polyclonal goat anti-human vWF antibody, was performed on duplicate specimens, with a standard curve generated using purified human vWF antigen supplied by the same vendor. EC P-selectin expression was determined by measuring the specific binding of a murine monoclonal anti-human P-selectin antibody (WAPS 12.2 clone, Endogen, Cambridge, Mass.; this is an IgGl which recognizes a calcium sensitive epitope and blocks P-selectin dependent neutrophil adhesion. Antibody was radiolabelled with ^125I by the lactoperoxidase method (19) using Enzymobeads (Bio-Rad, Hercules, Calif.), stored at 4° C. and used within one week of labelling. Binding assays were performed on HUVECs plated on 96 well plates, in which fresh M199 with 0.1% bovine serum albumin (Sigma, St. Louis, Mo.) was added immediately prior to each experiment. Cells were placed in a humidified environment at 37° C., and exposed to normoxia or H (in the presence or absence of 50 μM probucol, as indicated, Sigma) for the indicated durations. Cell monolayers were fixed for 15 min. with 1% paraformaldehyde^10 (cells exposed to H were fixed while still within the hypoxic environment), visually inspected to ensure that the monolayers remained intact, and washed twice with HBSS containing 0.5% bovine serum albumin (HBSS/A). Monolayers were then exposed to 10^5 cpm of ^125I-labelled anti-P-selectin antibody (WAPS 12.2) in the presence of 200 μg/mL of either unlabelled blocking antibody (WAPS 12.2) or nonblocking anti-P-selectin IgG of the same isotype (anti-GMP-140, AC1.2 clone, Becton-Dickinson, San Jose, Calif.) (20,21). After binding for 1 hour at 37° C., monolayers were washed 4 times with HBSS/A, and bound antibody was eluted with 1% triton X-100 in PBS (200 μL/well) and counted. […]

hypoxic HUVECs = assay: Immunofluorescent adherence assay, HL60 binding to hypoxic HUVECs; assay type: cell-based, human
Procedure: (§1) Hypoxia or free radicals induce P-selectin (PS) translocation to the endothelial cell (EC) surface, where it participates in neutrophil (PMN) adhesion during reperfusion. To explore a mechanism whereby nitrovasodilators may attenuate postischemic leukosequestration, we tested whether stimulating the NO/cGMP pathway could attenuate surface PS expression in hypoxic human umbillical vein ECs. […] Under similar conditions, addition of the NO donor 3-morpholino sydnonimine (SIN-1, 0.1 mM) or the cGMP analog 8-Bromo-cGMP (cGMP, 10 nM) caused a reduction in vWF release; Control vWF, 11±0.4 mU/mL; SIN-1, 9.1±0.3 mU/mL; cGMP, 9.7±0.2 mU/mL; p<0.005 for both SIN-1 or cGMP vs Control.

P-selectin = assay: Surface P-selectin expression on hypoxic HUVECs (radiolabeled anti-PS antibody binding); assay type: cell-based, human
Procedure: as §1

[3] = system: hypoxic human umbillical vein ECs; assay: vWF release from hypoxic HUVECs, NO/cGMP pathway; assay type: cell-based; conditions: hypoxia pO2<20 Torr 4 hours; SIN-1 0.1 mM, 8-Bromo-cGMP 10 nM
Procedure: as §1

[4] = CO-pretreated donor lungs vs untreated controls

Compound: streptokinase
- rate of hemorrhagic transformation (acute ischemic stroke; given in the first several (<6) hours following stroke onset): up to 67%
- 6 month mortality (acute ischemic stroke; outside the therapeutic window): 73%
- 10 day mortality (acute ischemic stroke; outside the therapeutic window): 34.0%

Compound: C=CC1=C(C)C2=Cc3c(C=C)c(C)c4[n]3[Sn]([Cl])([Cl])[n]3c(c(C)c(CCC(=O)O)c3=CC3=NC(=C4)C(C)=C3CCC(=O)O)=CC1=N2 [tin protoporphyrin, Tin protoporphyrin IX dichloride]
- infarct volume ([1]; heme oxygenase blockade): significantly larger infarct volumes
- mortality ([1]; heme oxygenase blockade): increased mortality
- neurological outcome ([1]; heme oxygenase blockade, vs untreated controls): worse neurological outcomes
- local CO levels by direct measurement ([1]; osmotic pump from 24 h before surgery plus i.v. dose): reduced local CO levels

Compound: [C-]#[O+] [carbon monoxide]
- mortality at 24 hours ([1]; 0.1% CO inhaled for 12 hours before MCA occlusion): reduces mortality
- cerebral infarct volume ([1]; 0.1% CO inhaled for 12 hours before MCA occlusion, 24 hours): reduces infarct volumes
- inhaled CO dose providing optimal protection (infarct volume) ([1]; dose-response of inhaled CO): 0.1%
- level of protection ([2]; 0.01% dose): least protection
- level of protection ([2]; 0.03% dose): intermediate level of protection
- level of protection ([2]; 0.1% dose): best protection
- survival of recipients ([2]; CO-pretreated donor lungs vs controls): Improved survival
- arterial oxygenation of recipients [2, 4]: Improved arterial oxygenation
- pulmonary arterial blood flow [2, 4]: Increased pulmonary arterial blood flow
- pulmonary vascular resistance [2, 4]: reduced pulmonary vascular resistance
- time dependence of protection ([2]; exposure 4, 8 or 12 hours before surgery): longer exposures appeared to provide the greatest protection

Compound: CC(C)(Sc1cc(C(C)(C)C)c(O)c(C(C)(C)C)c1)Sc1cc(C(C)(C)C)c(O)c(C(C)(C)C)c1 [probucol]
- vWF levels following reoxygenation of hypoxic ECs (Human umbilical vein ECs; probucol 50 μM): blunt the further increase in vWF levels
- effect on H-mediated exocytosis of Weibel-Palade bodies (vWF release) (Human umbilical vein ECs; probucol 50 μM added at onset of H): no effect
- vWF in culture supernatant (Human umbilical vein ECs; probucol 50 μM added at onset of H, 6 hours of H): 4.7±0.31×10^−3 U/ml

Compound: C=CC1=C(C)c2cc3[n-]c(cc4[n-]c(cc5nc(cc1n2)C(C)=C5C=C)c(C)c4CCC(=O)O)c(CCC(=O)O)c3C.[Zn+2] [zinc protoporphyrin IX]
- infarct volume ([1]; heme oxygenase blockade): increase
- mortality ([1]; heme oxygenase blockade): increase

Compound: C=CC1=C(C)/C(=C/C2=NC(=C\c3[nH]c(/C=C4\NC(=O)C(C)=C4C=C)c(C)c3CCC(=O)O)/C(CCC(=O)O)=C2C)NC1=O [Biliverdin, biliverdin]
- effect on stroke outcome (cerebral protection) ([1]; osmotic pump plus i.v. dose, total 0.061 mg): without effect

Compound: N=c1c[n+](N2CCOCC2)[n-]o1 [SIN-1, 3-morpholino sydnonimine]
- decrease of HL60 binding to hypoxic HUVECs vs controls (hypoxic HUVECs): 53%
- PS expression in calcium-free medium (P-selectin; ECs in calcium-free medium): Neither SIN-1 nor cGMP could further reduce PS expression
- decrease of surface PS expression vs controls (P-selectin; hypoxia 4 hours, SIN-1 0.1 mM, 8-Bromo-cGMP 10 nM): 40%
- vWF release [3]: 9.1±0.3 mU/mL

Compound: O=C(O)CN(CCOCCOCCN(CC(=O)O)CC(=O)O)CC(=O)O [EGTA, ethyleneglycol bis (aminoethylether) tetraacetic acid]
- H-induced EC release of vWF (Human umbilical vein ECs; 0 mM Ca++ with 2 mM EGTA, 8 hrs): even more suppressive effect
